Laboratory results: patent publication US9603364B2 (Dow AgroSciences LLC, priority 2013, dated 2017)

Legend:
Test in all cases: General post-emergent herbicidal activity, foliar application
Format in all cases: in vivo
[1] = test system: Chenopodium album L. (lambsquarters, common); settings: for pest or weed control at 70 g/ha: 70 g ai/ha; for pest or weed control at 140 g/ha: 140 g ai/ha; for pest or weed control at 280 g/ha: 280 g ai/ha; for GR80 Value CHEAL: calculated by probit analysis, dose for 80% visual injury, may be extrapolated
Outline: (§1)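 Visual injury ratings on a scale of 0 (none) to 100% (complete kill), taken 14 days after foliar post-emergence treatment of greenhouse plants and compared with untreated plants, were fitted by probit analysis to give GR20, GR50 and GR80 doses; some GR80 values are extrapolated from the slope. Sprays contained crop oil concentrate and surfactant, with rates from the highest down to 1/16×.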

[2] = test system: Amaranthus retroflexus L. (pigweed, redroot); settings: for pest or weed control at 70 g/ha: 70 g ai/ha; for pest or weed control at 140 g/ha: 140 g ai/ha; for pest or weed control at 280 g/ha: 280 g ai/ha; for GR80 Value AMARE: calculated by probit analysis, dose for 80% visual injury, may be extrapolated
Outline: as §1

[3] = test system: Euphorbia heterophylla L. (poinsettia, wild); settings: for pest or weed control at 70 g/ha: 70 g ai/ha; for pest or weed control at 140 g/ha: 140 g ai/ha; for pest or weed control at 280 g/ha: 280 g ai/ha; for GR80 Value EPHHL: calculated by probit analysis, dose for 80% visual injury, may be extrapolated
Outline: as §1

[4] = test system: Echinochloa crus-galli (L.) Beauv. (barnyardgrass); settings: for pest or weed control at 70 g/ha: 70 g ai/ha; for pest or weed control at 140 g/ha: 140 g ai/ha; for pest or weed control at 280 g/ha: 280 g ai/ha; for GR80 Value ECHCG: calculated by probit analysis, dose for 80% visual injury, may be extrapolated
Outline: as §1

[5] = test system: Helianthus annuus L. (sunflower, common); settings: for pest or weed control at 70 g/ha: 70 g ai/ha; for pest or weed control at 140 g/ha: 140 g ai/ha; for pest or weed control at 280 g/ha: 280 g ai/ha; for GR80 Value HELAN: calculated by probit analysis, dose for 80% visual injury, may be extrapolated
Outline: as §1

[6] = test system: Viola tricolor L. (pansy); settings: for pest or weed control at 70 g/ha: 70 g ai/ha; for pest or weed control at 140 g/ha: 140 g ai/ha; for pest or weed control at 280 g/ha: 280 g ai/ha; for GR80 Value VIOTR: calculated by probit analysis, dose for 80% visual injury, may be extrapolated
Outline: as §1

Zea mays L. (corn) = settings: 336 h, scored after 14 days, read-out: % Visual Growth Reduction ZEAMX; for plant injury at 70 g/ha: 70 g ai/ha; for plant injury at 140 g/ha: 140 g ai/ha; for plant injury at 280 g/ha: 280 g ai/ha
Outline: (§2)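 Compounds in acetone/DMSO (97:3) diluted into aqueous spray with isopropanol, Atplus 411F crop oil and Triton X-155; top rate plus 1/2×–1/16× serial rates applied to foliage, solvent blank as control. Greenhouse, sub-irrigated; visual injury versus untreated plants scored 0–100% (100 = complete kill) after 14 days.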

Oryza sativa L. (rice) = settings: Oryza sativa, 336 h, scored after 14 days, read-out: % Visual Growth Reduction ORYSA; for plant injury at 70 g/ha: 70 g ai/ha; for plant injury at 140 g/ha: 140 g ai/ha; for plant injury at 280 g/ha: 280 g ai/ha
Outline: as §2

[7] = Chenopodium album, 336 h, foliar post-emergent, scored after 14 days, read-out: % Visual Growth Reduction CHEAL
[8] = Amaranthus retroflexus, 336 h, foliar post-emergent, scored after 14 days, read-out: % Visual Growth Reduction AMARE
[9] = Euphorbia heterophylla, 336 h, foliar post-emergent, scored after 14 days, read-out: % Visual Growth Reduction EPHHL
[10] = Echinochloa crus-galli, 336 h, foliar post-emergent, scored after 14 days, read-out: % Visual Growth Reduction ECHCG
[11] = Helianthus annuus, 336 h, foliar post-emergent, scored after 14 days, read-out: % Visual Growth Reduction HELAN
[12] = Viola tricolor, 336 h, foliar post-emergent, scored after 14 days, read-out: % Visual Growth Reduction VIOTR

Structure (SMILES) | pest or weed control at 140 g/ha [1, 7] [%] | pest or weed control at 280 g/ha [1, 7] [%] | GR80 Value CHEAL [1] [g ai/ha] | pest or weed control at 140 g/ha [2, 8] [%] | pest or weed control at 280 g/ha [2, 8] [%] | GR80 Value AMARE [2] [g ai/ha] | pest or weed control at 140 g/ha [3, 9] [%] | pest or weed control at 280 g/ha [3, 9] [%] | GR80 Value EPHHL [3] [g ai/ha] | pest or weed control at 140 g/ha [4, 10] [%] | pest or weed control at 280 g/ha [4, 10] [%] | GR80 Value ECHCG [4] [g ai/ha] | pest or weed control at 140 g/ha [5, 11] [%] | pest or weed control at 280 g/ha [5, 11] [%] | GR80 Value HELAN [5] [g ai/ha] | pest or weed control at 140 g/ha [6, 12] [%] | pest or weed control at 280 g/ha [6, 12] [%] | GR80 Value VIOTR [6] [g ai/ha] | plant injury at 280 g/ha (Zea mays L. (corn)) [%] | plant injury at 280 g/ha (Oryza sativa L. (rice)) [%] | also measured
COC(=O)c1nc(CCF)c(F)c(N)c1Cl [Compound F29, Methyl 4-amino-3-chloro-5-fluoro-6-(2-fluoroethyl)picolinate] | 90 | 90 | <17.5 | 100 | 100 | 55.1 | 100 | 100 | 53.9 | 10 | 60 | 432 | 90 | 90 | 60 | 70 | 90 | 203 | 0 | 0 | pest or weed control at 70 g/ha [1, 7]: 90%; pest or weed control at 70 g/ha [2, 8]: 90%; pest or weed control at 70 g/ha [3, 9]: 100%; pest or weed control at 70 g/ha [4, 10]: 0%; pest or weed control at 70 g/ha [5, 11]: 80%; pest or weed control at 70 g/ha [6, 12]: 10%; plant injury at 70 g/ha (Zea mays L. (corn)): 0%; plant injury at 140 g/ha (Zea mays L. (corn)): 0%; plant injury at 70 g/ha (Oryza sativa L. (rice)): 0%; plant injury at 140 g/ha (Oryza sativa L. (rice)): 0%
CC(F)c1nc(C(=O)O)c(Cl)c(N)c1F (stereo not shown) [Compound F30, 4-amino-3-chloro-5-fluoro-6-(1-fluoroethyl)picolinic acid] | 95 | 100 | <17.5 | 100 | 100 | 40.6 | 100 | 100 | 84.9 | 65 | 80 | 239 | 90 | 90 | 59.3 | 25 | 50 | >280 | 100 | 0 | pest or weed control at 70 g/ha [1, 7]: 95%; pest or weed control at 70 g/ha [2, 8]: 100%; pest or weed control at 70 g/ha [3, 9]: 70%; pest or weed control at 70 g/ha [4, 10]: 0%; pest or weed control at 70 g/ha [5, 11]: 80%; pest or weed control at 70 g/ha [6, 12]: 10%; plant injury at 70 g/ha (Zea mays L. (corn)): 100%; plant injury at 140 g/ha (Zea mays L. (corn)): 100%; plant injury at 70 g/ha (Oryza sativa L. (rice)): 0%; plant injury at 140 g/ha (Oryza sativa L. (rice)): 0%
COC(=O)c1nc(CCF)cc(N)c1Cl [Compound F31, methyl 4-amino-3-chloro-6-(2-fluoroethyl)picolinate] | – | – | 6.93 | – | – | <17.5 | – | – | <17.5 | – | – | >180 | – | – | 42.4 | – | – | 74.4 | – | – | pest or weed control at 180 g/ha ([1]; Chenopodium album, 336 h, 180 g ai/ha, foliar post-emergent, scored after 14 days, read-out: % Visual Growth Reduction CHEAL): 100%; pest or weed control at 180 g/ha ([2]; Amaranthus retroflexus, 336 h, 180 g ai/ha, foliar post-emergent, scored after 14 days, read-out: % Visual Growth Reduction AMARE): 15%; pest or weed control at 180 g/ha ([3]; Euphorbia heterophylla, 336 h, 180 g ai/ha, foliar post-emergent, scored after 14 days, read-out: % Visual Growth Reduction EPHHL): 45%; pest or weed control at 180 g/ha ([4]; Echinochloa crus-galli, 336 h, 180 g ai/ha, foliar post-emergent, scored after 14 days, read-out: % Visual Growth Reduction ECHCG): 0%; pest or weed control at 180 g/ha ([5]; Helianthus annuus, 336 h, 180 g ai/ha, foliar post-emergent, scored after 14 days, read-out: % Visual Growth Reduction HELAN): 90%; pest or weed control at 180 g/ha ([6]; Viola tricolor, 336 h, 180 g ai/ha, foliar post-emergent, scored after 14 days, read-out: % Visual Growth Reduction VIOTR): 100%; plant injury at 180 g/ha (Zea mays L. (corn); 180 g ai/ha): 0%; plant injury at 180 g/ha (Oryza sativa L. (rice); 180 g ai/ha): 0%
Nc1c(F)c(C(F)F)nc(C(=O)O)c1Cl [Compound F32, 4-Amino-3-chloro-6-(difluoromethyl)-5-fluoropicolinic acid] | 90 | 100 | 26.9 | 55 | 85 | 251 | 30 | 50 | >280 | 55 | 60 | 433 | 100 | 100 | 40.8 | 5 | 10 | >280 | 10 | 5 | plant injury at 140 g/ha (Zea mays L. (corn)): 0%; plant injury at 140 g/ha (Oryza sativa L. (rice)): 0%
COC(=O)c1nc(C(Br)CBr)cc(N)c1Cl (stereo not shown) [Compound F34, methyl 4-amino-3-chloro-6-(1,2-dibromoethyl)picolinate] | – | – | – | – | – | – | – | – | – | – | – | – | – | – | – | – | – | – | – | – | pest or weed control at 264 g/ha ([1]; Chenopodium album, 336 h, 264 g ai/ha, foliar post-emergent, scored after 14 days, read-out: % Visual Growth Reduction CHEAL): 60%; pest or weed control at 264 g/ha ([2]; Amaranthus retroflexus, 336 h, 264 g ai/ha, foliar post-emergent, scored after 14 days, read-out: % Visual Growth Reduction AMARE): 0%; pest or weed control at 264 g/ha ([3]; Euphorbia heterophylla, 336 h, 264 g ai/ha, foliar post-emergent, scored after 14 days, read-out: % Visual Growth Reduction EPHHL): 10%; pest or weed control at 264 g/ha ([4]; Echinochloa crus-galli, 336 h, 264 g ai/ha, foliar post-emergent, scored after 14 days, read-out: % Visual Growth Reduction ECHCG): 0%; pest or weed control at 264 g/ha ([5]; Helianthus annuus, 336 h, 264 g ai/ha, foliar post-emergent, scored after 14 days, read-out: % Visual Growth Reduction HELAN): 80%; pest or weed control at 264 g/ha ([6]; Viola tricolor, 336 h, 264 g ai/ha, foliar post-emergent, scored after 14 days, read-out: % Visual Growth Reduction VIOTR): 0%; plant injury at 264 g/ha (Zea mays L. (corn); 264 g ai/ha): 0%; plant injury at 264 g/ha (Oryza sativa L. (rice); 264 g ai/ha): 0%
COC(=O)c1nc(CCl)cc(N)c1Cl [Compound F35, methyl 4-amino-3-chloro-6-(chloromethyl)picolinate] | – | 0 | – | – | 0 | – | – | 0 | – | – | 0 | – | – | 0 | – | – | 0 | – | 0 | 0 | –
